Results taken from patent US20160367490A1, “MULTI-LAYER TOPICALLY-APPLIED ARTICLE FOR PROVIDING A BENEFIT TO SKIN” (Johnson & Johnson Consumer Inc., priority 2015, published 2016).

Experiment: Franz cell skin delivery of hexylresorcinol (HPLC)
Assay type: in vitro ADME
Settings: Franz cells, n=4, FIG. 3
From the text: Wash Franz cells with ethanol 70%, water and receptor solution (1×PBS, phosphate buffered saline).
Measure skin thickness and electrical resistance
Mount the tissue on Franz cells (n=4).
Once equilibrated, make sure there isn't excess moisture on the surface of the tissue (SC) by dabbing the skin surface with Kimwipes.
Carefully remove the backing on the film and place it on the donor area with a light pressure (5 times tap on skin surface); the adhesive side is in touch with skin.
Mount the donor chamber and leave it overnight
Next morning (After 16 h time point), take a sample (300 uL) (Oh), replace with fresh 1×PBS.
Add 100 uL 1×PBS to the donor chamber, let it sit for 30 sec, remove it using a plastic pipet moving around the edge of the donor. Repeat this cycle 5 times. Pool these 1×PBS solution and analyze by HPLC
Remove the donor chamber with the tissue still mounted on the Franz cells. Use a cotton swab to take out all the remained liquid on skin. Extract drug from this swab by shaking at 100 rpm overnight in 2 mL ethanol: Water (50:50 v/v).
Put the donor chamber back. After every 2 hours (2,4,6 h), take sample (300 uL) and replace with fresh receptor solution.
At 22 h, remove the donor chamber, remove skin from cells, put skin on sheets of paper and do tape stripping with 2 tapes to remove the excessive drug on skin surface. Put these 2 tapes in a well in 6-well plate for extraction. […]

## CCCCCCCC/C=C\CCCCCCCC(=O)OCC(O)CO (stereo not shown) [Monumuls, glycerol oleate]
  delivery of the hexylresorcinol compared to Example 16C (no emulsifier): greatly enhanced
